# Measurements as given in patent US9233078B2, “Nanoparticles comprising a non-ionizable polymer and an Amine-functionalized methacrylate copolymer” (Bend Research, Inc., priority 2007, dated 2016).
# Experiments:
# [1] = Aqueous solubility of the drugs; format: physicochemical; conditions: water
# [2] = for Observations: pH 6.5
# Description: The polymer is a poorly aqueous soluble non-ionizable polymer. […] An appropriate PBS solution is an aqueous solution comprising 20 mM sodium phosphate (Na2HPO4), 47 mM potassium phosphate (KH2PO4), 87 mM NaCl, and 0.2 mM KCl, adjusted to pH 6.5 with NaOH. A test to determine whether the polymer is poorly aqueous soluble may be performed as follows. The polymer is initially present in bulk powder form with average particle sizes of greater than about 1 micron. The polymer alone is administered at a concentration of 0.2 mg/mL to the PBS solution and stirred for approximately 1 hour at room temperature. Next, a nylon 0.45 μm filter is weighed, and the polymer solution is filtered. The filter is dried overnight at 40° C., and weighed the following morning. The amount of polymer dissolved is calculated from the amount of polymer added to the PBS solution minus the amount of polymer remaining on the filter (mg). […] First, 0.2 mg/mL of the polymer was added to a PBS solution consisting of 20 mM Na2HPO4, 47 mM KH2PO4, 87 mM NaCl, and 0.2 mM KCl, adjusted to pH 6.5 with NaOH. The polymer was stirred in the PBS solution for approximately 1 hour at room temperature. Next, the polymer solution was filtered through a nylon 0.45 μm filter that was weighed dry prior to filtration. The filter was dried overnight at 40° C., and weighed the following morning. The amount of soluble polymer was calculated from the amount of polymer added to form the polymer solution minus the amount of polymer remaining on the filter.
# [3] = Log P of Drug 1; format: physicochemical; conditions: octanol/water
# Text: The first property of hydrophobic drugs is that they are extremely hydrophobic. Log P, defined as the base 10 logarithm of the ratio of the drug solubility in octanol to the drug solubility in water, is a widely accepted measure of hydrophobicity. By “extremely hydrophobic” is meant that the Log P value of the drug is at least 4.0, preferably at least 4.5, and most preferably at least 5.0. Log P may be measured experimentally or calculated using methods known in the art. When using a calculated value for Log P, the highest value calculated using any generally accepted method for calculating Log P is used. Calculated Log P values are often referred to by the calculation method, such as Clog P, Alog P, and Mlog P. The Log P may also be estimated using fragmentation methods, such as Crippen's fragmentation method (27 J. Chem. Inf. Comput. Sci. 21 (1987)); Viswanadhan's fragmentation method (29 J. Chem. Inf. Comput. Sci. 163 (1989)); or Broto's fragmentation method (19 Eur. J. Med. Chem.-Chim. Theor. 71 (1984). Preferably the Log P value is calculated by using the average value estimated using Crippen's, Viswanadhan's, and Broto's fragmentation methods.
# [4] = Free drug analysis, 100,000-dalton cutoff filtration and HPLC; format: physicochemical; conditions: 2.5 mgA/mL suspension in deionized water with dextrose, about 300 mOsm
# Description: The suspension was filtered using a centrifuge tube filter with a 100,000-dalton molecular-weight cutoff. The filtrate solution was assayed by high-performance liquid chromatography (HPLC).
compound,measurement,setting,value
"CCNC1CN(CCCOC)S(=O)(=O)c2sc(S(N)(=O)=O)cc21 (centres unmarked) [Drug 5, brinzolamide, reference compound]",solubility,[1],~490 µg/mL
"CC[C@@H]1C[C@H](N(Cc2cc(C(F)(F)F)cc(C(F)(F)F)c2)C(C)=O)c2cc(C(F)(F)F)ccc2N1C(=O)OC(C)C [Drug 2, [2R,4S] 4-[acetyl-(3,5-bis-trifluoromethyl-benzyl)-amino]-2-ethyl-6-trifluoromethyl-3,4-dihydro-2H-quinoline-1-carboxylic acid isopropyl ester]",solubility,[1],< 1 µg/mL
Cc1ccc(C)c(Cc2nc(CO)nn2-c2ccc(S(N)(=O)=O)cc2F)c1 [Drug 3],solubility,[1],~650 µg/mL
ethylcellulose,Amount Soluble at pH 6.5,[2],<0.001 mg/mL
same,Observations,[2],Fine particle
cellulose triacetate,Amount Soluble at pH 6.5,[2],<0.001 mg/mL
same,Observations,[2],Fine particle
"Cc1onc(-c2ccccc2)c1-c1ccc(S(N)(=O)=O)cc1 [Drug 1, 4-(5-methyl-3-phenyl-4-isoxazolyl) benzenesulfonamide]",logP,[3],~3
same,solubility,[1],~10 µg/mL
same,Free Drug,[4],11 µg/mL
COCCN(C)Cc1nc(Cc2cccc(C)c2)n(-c2ccc(S(N)(=O)=O)cc2F)n1 [Drug 4],solubility,[1],~740 µg/mL
